These results are taken from US20250145665A1, “MACROCYCLIC PEPTIDES USEFUL AS MODULATORS OF TNF ALPHA” (Bristol-Myers Squibb Company, priority 2023, published 2025).

pIC50: −log10 of the molar value. Starred links: 1 amine or outer side, 2 acyl side, 3 side chain; linkers in the order of their positions; H or OH if unused. Positions of bridges follow the written chain, without caps; N, C: chain ends. Non-standard residues stand in square brackets, D forms with d. Residues, ends and D or L forms follow the SMILES beside them. *: point of attachment. Bip(4'-NH) = O=C([C@H](Cc1ccc(-c2ccc(N[*:3])cc2)cc1)N[*:1])[*:2]; Bip(4'-CONHMe) = CNC(=O)c1ccc(-c2ccc(C[C@H](N)C(=O)O)cc2)cc1; Indazole3carbonyl(1-CH2COOH) = O=C(O)Cn1nc(C(=O)*)c2ccccc21; X23 = N=C(N)Nc1ccc(CNC(=N)NCCC[C@@H](N[*:1])C(=O)[*:2])cc1; X1 = N=C(NCCC[C@@H](N[*:1])C(=O)[*:2])NCCc1ccc2ccccc2c1; X30 = N#Cc1ccc(CCNC(=N)NCCC[C@@H](N[*:1])C(=O)[*:2])cc1; X8 = N=C(NCCC[C@@H](N[*:1])C(=O)[*:2])NCCc1ccc(CN)cc1; X55 = N=C(NCCC[C@@H](N[*:1])C(=O)[*:2])NCCc1cccnc1; Ala(morpholin-4-yl) = N[C@@H](CN1CCOCC1)C(=O)O; Bip = N[C@@H](Cc1ccc(-c2ccccc2)cc1)C(=O)O; Sar = CNCC(=O)O

This assay deals with TNFα (Homo sapiens, UniProt P01375). Description: TNF-Induced HEK-Blue Assay. The class given is cell-based.
TNFα, sequence (P01375 77-233 limits assumed): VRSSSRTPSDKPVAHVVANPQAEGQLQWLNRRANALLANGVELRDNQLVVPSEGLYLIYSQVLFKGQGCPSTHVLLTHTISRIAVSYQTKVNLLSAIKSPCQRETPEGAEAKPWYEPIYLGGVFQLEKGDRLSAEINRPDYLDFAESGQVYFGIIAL
As a reminder, the pIC50 is −log10 of the IC50, conventionally taken in molar units. Lower therefore signals a high IC50. With `CNC(=O)c1ccc(-c2ccc(C[C@@H]3NC(=O)[C@H](CN4CCOCC4)NC(=O)CSC[C@@H](C(=O)NCC(N)=O)NC(=O)[C@H](CC(C)C)NC(=O)[C@H](CCCNC(=N)N)NC(=O)[C@H](C(C)C)NC(=O)[C@@H]4CCCN4C(=O)[C@H](C(C)C)NC(=O)[C@@H](CCCNC(=N)NCCc4ccc(C#N)cc4)NC(=O)[C@H](CC(=O)O)NC(=O)[C@@H]4CCCN4C(=O)CN(C)C(=O)[C@H](Cc4ccc(-c5ccc(NC(=O)c6nn(CC(=O)O)c7ccccc67)cc5)cc4)NC3=O)cc2)cc1` [Example 430] ({CH2CO}-[Ala(morpholin-4-yl)][Bip(4'-CONHMe)][Bip(4'-NH)](Indazole3carbonyl(1-CH2COOH))[Sar]PD[X30]VPVRLCG-NH2; thioether N-13), the pIC50 is > 7.30.

`CNC(=O)c1ccc(-c2ccc(C[C@@H]3NC(=O)[C@H](CN4CCOCC4)NC(=O)CSC[C@@H](C(=O)NCC(N)=O)NC(=O)[C@H](CC(C)C)NC(=O)[C@H](CCCNC(=N)N)NC(=O)[C@H](C(C)C)NC(=O)[C@@H]4CCCN4C(=O)[C@H](C(C)C)NC(=O)[C@@H](CCCNC(=N)NCCc4ccc(CN)cc4)NC(=O)[C@H](CC(=O)O)NC(=O)[C@@H]4CCCN4C(=O)CN(C)C(=O)[C@H](Cc4ccc(-c5ccc(NC(=O)c6nn(CC(=O)O)c7ccccc67)cc5)cc4)NC3=O)cc2)cc1` [Example 431] ({CH2CO}-[Ala(morpholin-4-yl)][Bip(4'-CONHMe)][Bip(4'-NH)](Indazole3carbonyl(1-CH2COOH))[Sar]PD[X8]VPVRLCG-NH2; thioether N-13) had a pIC50 of 6.70 to 7.30.

Turning to `CC(C)C[C@@H]1NC(=O)[C@H](CCCNC(=N)N)NC(=O)[C@H](C(C)C)NC(=O)[C@@H]2CCCN2C(=O)[C@H](C(C)C)NC(=O)[C@@H](CCCNC(=N)NCc2ccc(NC(=N)N)cc2)NC(=O)[C@H](CC(=O)O)NC(=O)[C@@H]2CCCN2C(=O)CN(C)C(=O)[C@H](Cc2ccc(-c3ccc(NC(=O)c4nn(CC(=O)O)c5ccccc45)cc3)cc2)NC(=O)[C@H](Cc2ccc(-c3ccccc3)cc2)NC(=O)[C@H](CN2CCOCC2)NC(=O)CSC[C@@H](C(=O)NCC(N)=O)NC1=O` [Example 432] ({CH2CO}-[Ala(morpholin-4-yl)][Bip][Bip(4'-NH)](Indazole3carbonyl(1-CH2COOH))[Sar]PD[X23]VPVRLCG-NH2; thioether N-13), the pIC50 is 6.70 to 7.30.

For the compound `CC(C)C[C@@H]1NC(=O)[C@H](CCCNC(=N)N)NC(=O)[C@H](C(C)C)NC(=O)[C@@H]2CCCN2C(=O)[C@H](C(C)C)NC(=O)[C@@H](CCCNC(=N)NCCc2ccc3ccccc3c2)NC(=O)[C@H](CC(=O)O)NC(=O)[C@@H]2CCCN2C(=O)CN(C)C(=O)[C@H](Cc2ccc(-c3ccc(NC(=O)c4nn(CC(=O)O)c5ccccc45)cc3)cc2)NC(=O)[C@H](Cc2ccc(-c3ccccc3)cc2)NC(=O)[C@H](CN2CCOCC2)NC(=O)CSC[C@@H](C(=O)NCC(N)=O)NC1=O` [Example 433] ({CH2CO}-[Ala(morpholin-4-yl)][Bip][Bip(4'-NH)](Indazole3carbonyl(1-CH2COOH))[Sar]PD[X1]VPVRLCG-NH2; thioether N-13), the negative logarithm of the IC50 (pIC50) is 6.70 to 7.30.

As to `CC(C)C[C@@H]1NC(=O)[C@H](CCCNC(=N)N)NC(=O)[C@H](C(C)C)NC(=O)[C@@H]2CCCN2C(=O)[C@H](C(C)C)NC(=O)[C@@H](CCCNC(=N)NCCc2cccnc2)NC(=O)[C@H](CC(=O)O)NC(=O)[C@@H]2CCCN2C(=O)CN(C)C(=O)[C@H](Cc2ccc(-c3ccc(NC(=O)c4nn(CC(=O)O)c5ccccc45)cc3)cc2)NC(=O)[C@H](Cc2ccc(-c3ccccc3)cc2)NC(=O)[C@H](CN2CCOCC2)NC(=O)CSC[C@@H](C(=O)NCC(N)=O)NC1=O` [Example 434] ({CH2CO}-[Ala(morpholin-4-yl)][Bip][Bip(4'-NH)](Indazole3carbonyl(1-CH2COOH))[Sar]PD[X55]VPVRLCG-NH2; thioether N-13), the pIC50 was 6.70 to 7.30.
